The source of these data is patent publication US11497751B2, “Modulators of Rho-associated protein kinase” (Redx Pharma PLC, priority 2018, dated 2022).

Assay [1] addresses T1, N-terminal 6His-tagged ROCK2 catalytic domain 11-552 (Homo sapiens, UniProt O75116).
T1 construct: N-terminal 6His-tagged ROCK2 catalytic domain 11-552; 6His (N); purchased Dundee University, UK; host or cells: baculovirus expression system
Description: ROCK2 binding activity: ROCK2 inhibition, ADP-Glo Kinase Assay. The format is biochemical. To be noted: 1.25 nM ROCK2, 100 μM long S6 peptide, 20 μM ATP; 1 hour pre-incubation; read-out: ADP-Glo kinase activity assay ROCK2 Category. Summed up:
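1.25 nM baculovirus-expressed ROCK2 pre-incubated 1 h with compound (1% DMSO), then 100 μM long S6 peptide and 20 μM ATP added for 1 h; 50 mM HEPES pH 7.5, 10 mM Mg acetate, 1 mM DTT. ADP-Glo luminescence; IC50 from four-parameter logistic fit.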
For orientation: ADP-Glo turns the ADP formed in a reaction into a luminescent signal.

A further assay relates to T cells. As to conditions: oral administration of KD025, healthy human subjects, ex-vivo stimulation of T-cells; cited from earlier work.

T1 sequence (O75116 11-552): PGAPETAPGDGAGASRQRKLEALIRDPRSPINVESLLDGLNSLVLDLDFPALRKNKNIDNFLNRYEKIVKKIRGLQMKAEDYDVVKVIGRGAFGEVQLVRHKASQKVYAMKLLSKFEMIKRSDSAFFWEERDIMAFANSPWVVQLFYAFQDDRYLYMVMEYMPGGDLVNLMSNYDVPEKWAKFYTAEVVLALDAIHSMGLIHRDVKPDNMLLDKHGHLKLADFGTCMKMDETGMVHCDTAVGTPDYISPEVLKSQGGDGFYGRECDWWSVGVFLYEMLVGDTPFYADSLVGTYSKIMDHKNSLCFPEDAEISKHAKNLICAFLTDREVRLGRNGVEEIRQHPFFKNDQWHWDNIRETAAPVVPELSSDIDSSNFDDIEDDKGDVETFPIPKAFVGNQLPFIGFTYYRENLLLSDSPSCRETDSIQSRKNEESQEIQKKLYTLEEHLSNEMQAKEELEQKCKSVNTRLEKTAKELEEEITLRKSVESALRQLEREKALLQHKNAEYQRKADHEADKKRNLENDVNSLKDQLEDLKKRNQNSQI

As to `COc1cc(-c2nc(Nc3ccc4[nH]ncc4c3C)n(CC(C)C)n2)ccc1C(=O)NCC(F)(F)F` [Example 455], the IC50 in assay [1] was below 300 nM.

Turning to `COc1cc(-c2nc(Nc3ccc4[nH]ncc4c3C)n(C3CC3)n2)ccc1C(=O)NCC(F)(F)F` [Example 456], the IC50 in assay [1] is below 300 nM.

As to `CCn1nc(-c2ccc(C(=O)NCC(F)(F)F)c(OC)c2)nc1Nc1ccc2[nH]ncc2c1C` [Example 457], the IC50 in assay [1] is below 300 nM.

Turning to `C=C(C)c1c(Nc2nc(-c3ccc(C(=O)NCC(F)(F)F)cc3)nn2C)ccc2[nH]ncc12` [Example 458, 4-[5-[(4-isopropenyl-1H-indazol-5-yl)amino]-1-methyl-1,2,4-triazol-3-yl]-N-(2,2,2-trifluoroethyl)benzamide], the IC50 in assay [1] was below 300 nM.

With `C=C(C)c1c(Nc2nc(-c3ccc(C(=O)NCC)cc3)nn2C)ccc2[nH]ncc12` [Example 459, N-ethyl-4-[5-[(4-isopropenyl-1H-indazol-5-yl)amino]-1-methyl-1,2,4-triazol-3-yl]benzamide], the IC50 in assay [1] is below 300 nM.

Regarding `CC(C)NC(=O)COc1ccc(-c2nc(Nc3ccc4[nH]ncc4c3)n(C)n2)cc1` [Example 470], the IC50 in assay [1] is below 300 nM.

Turning to `CC(C)NC(=O)COc1ccc(-c2nc(Nc3ccc4[nH]ncc4c3Cl)n(C)n2)cc1` [Example 471], the IC50 in assay [1] is below 300 nM.

On to `CC(C)NC(=O)COc1ccc(-c2nc(Nc3ccc4[nH]ncc4c3Cl)n(C)n2)cc1Cl` [Example 472], for which the IC50 in assay [1] is below 300 nM.

Take `CC(C)NC(=O)COc1ccc(-c2nc(Nc3ccc4[nH]ncc4c3)n(C)n2)cc1F` [Example 473]: the IC50 in assay [1] was below 300 nM.

In the case of `CC(C)NC(=O)COc1ccc(-c2nc(Nc3ccc4[nH]ncc4c3Cl)n(C)n2)cc1F` [Example 474], the IC50 in assay [1] was below 300 nM.

For the molecule `CC(C)NC(=O)COc1ccc(-c2nc(Nc3ccc4[nH]ncc4c3Cl)n(C)n2)c(C(F)(F)F)c1` [Example 475], in assay [1], the IC50 was below 300 nM.

Turning to `CC(C)NC(=O)COc1cccc(-c2nc(Nc3ccc4[nH]ncc4c3)c3ccccc3n2)c1` [KD025], in the assay on T cells, the “reduction of the ability of T cells to secrete IL-17” value is 60% and the “reduction of the ability of T cells to secrete IL-21” value was 90%.
